From ChEMBL document CHEMBL1909046, “DrugMatrix in vitro pharmacology data”

Tests used:
[1] = molecular target: Beta-2 adrenergic receptor (Homo sapiens, UniProt P07550); assay: DRUGMATRIX: Adrenergic beta2 radioligand binding (ligand: [3H] CGP-12177); format: cell membranes, CHO, Membrane; conditions: cho; Not Active = under 50% inhibition at 10 µM
[2] = molecular target: Tyrosine-protein kinase Lck (Homo sapiens, UniProt P06239); assay: DRUGMATRIX: Protein Tyrosine Kinase, LCK enzyme inhibition (substrate: Poly(Glu:Tyr)); format: cell-based, Insect cells; conditions: insect cells; Not Active = under 50% inhibition at 10 µM
Tyrosine-protein kinase Lck, sequence (P06239 whole entry): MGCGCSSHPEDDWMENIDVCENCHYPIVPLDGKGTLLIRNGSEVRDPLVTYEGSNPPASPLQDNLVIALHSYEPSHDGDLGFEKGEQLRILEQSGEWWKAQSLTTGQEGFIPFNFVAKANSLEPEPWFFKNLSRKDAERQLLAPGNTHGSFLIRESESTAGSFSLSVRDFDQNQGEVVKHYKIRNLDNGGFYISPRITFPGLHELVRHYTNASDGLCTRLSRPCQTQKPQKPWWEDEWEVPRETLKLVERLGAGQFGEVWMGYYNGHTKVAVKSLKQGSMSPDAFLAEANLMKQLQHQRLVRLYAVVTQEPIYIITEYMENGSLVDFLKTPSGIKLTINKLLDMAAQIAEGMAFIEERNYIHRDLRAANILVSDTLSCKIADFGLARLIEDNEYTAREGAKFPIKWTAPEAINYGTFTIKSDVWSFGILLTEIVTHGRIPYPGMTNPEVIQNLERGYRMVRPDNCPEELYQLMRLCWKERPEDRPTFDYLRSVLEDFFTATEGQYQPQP

[3] = molecular target: T1, Muscarinic acetylcholine receptor M5 (Homo sapiens, UniProt P08912); format: cell membranes, CHO-K1, Membrane; further: in other assays of this panel Not Active means under 50% inhibition at 10 µM
T1 sequence (P08912 whole entry): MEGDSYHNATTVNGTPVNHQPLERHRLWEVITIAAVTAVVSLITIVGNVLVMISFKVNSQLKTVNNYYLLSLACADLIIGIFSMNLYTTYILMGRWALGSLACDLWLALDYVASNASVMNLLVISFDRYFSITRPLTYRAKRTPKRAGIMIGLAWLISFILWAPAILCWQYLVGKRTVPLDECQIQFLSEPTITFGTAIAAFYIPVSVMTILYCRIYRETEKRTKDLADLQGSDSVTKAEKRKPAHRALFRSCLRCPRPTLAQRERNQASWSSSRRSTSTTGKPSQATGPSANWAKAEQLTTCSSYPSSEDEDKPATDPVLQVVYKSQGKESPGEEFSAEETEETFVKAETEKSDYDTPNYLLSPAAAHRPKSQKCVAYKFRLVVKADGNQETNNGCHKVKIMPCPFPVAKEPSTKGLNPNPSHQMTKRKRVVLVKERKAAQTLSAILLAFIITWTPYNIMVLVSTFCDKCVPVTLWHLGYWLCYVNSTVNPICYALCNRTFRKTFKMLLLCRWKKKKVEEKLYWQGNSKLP

[4] = molecular target: T2, Alpha-1D adrenergic receptor (Homo sapiens, UniProt P25100); format: cell membranes, HEK293, Membrane; further: in other assays of this panel Not Active means under 50% inhibition at 10 µM
T2 sequence (P25100 whole entry): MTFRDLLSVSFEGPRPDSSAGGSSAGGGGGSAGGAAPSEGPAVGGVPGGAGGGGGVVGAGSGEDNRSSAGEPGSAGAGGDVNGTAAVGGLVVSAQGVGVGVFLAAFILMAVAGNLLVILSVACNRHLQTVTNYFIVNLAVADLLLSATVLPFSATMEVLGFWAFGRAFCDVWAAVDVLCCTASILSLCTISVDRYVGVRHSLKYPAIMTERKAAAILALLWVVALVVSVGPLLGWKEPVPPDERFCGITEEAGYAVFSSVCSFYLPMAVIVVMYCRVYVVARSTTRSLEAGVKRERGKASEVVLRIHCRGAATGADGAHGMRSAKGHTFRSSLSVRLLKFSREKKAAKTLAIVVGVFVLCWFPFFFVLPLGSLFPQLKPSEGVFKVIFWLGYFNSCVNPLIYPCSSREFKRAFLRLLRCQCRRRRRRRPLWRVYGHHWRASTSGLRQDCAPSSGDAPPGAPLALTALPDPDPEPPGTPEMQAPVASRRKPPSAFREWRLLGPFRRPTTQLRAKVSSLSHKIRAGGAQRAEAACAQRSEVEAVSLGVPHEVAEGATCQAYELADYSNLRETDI

[5] = molecular target: Histamine H2 receptor (Homo sapiens, UniProt P25021); format: cell membranes, CHO-K1, Membrane; conditions: for Ki: read-out: Ki; on all read-outs here: in other assays of this panel Not Active means under 50% inhibition at 10 µM
Histamine H2 receptor, sequence (P25021 whole entry): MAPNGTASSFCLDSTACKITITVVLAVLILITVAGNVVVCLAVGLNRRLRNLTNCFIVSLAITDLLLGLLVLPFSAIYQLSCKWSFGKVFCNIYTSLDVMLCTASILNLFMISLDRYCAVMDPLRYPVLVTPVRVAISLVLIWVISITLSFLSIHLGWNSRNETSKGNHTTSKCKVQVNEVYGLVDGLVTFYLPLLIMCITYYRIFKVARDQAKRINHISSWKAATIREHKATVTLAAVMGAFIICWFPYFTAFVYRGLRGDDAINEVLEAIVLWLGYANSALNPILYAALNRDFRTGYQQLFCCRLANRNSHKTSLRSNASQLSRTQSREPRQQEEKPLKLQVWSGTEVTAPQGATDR

Beta-2 adrenergic receptor, sequence (P07550 whole entry): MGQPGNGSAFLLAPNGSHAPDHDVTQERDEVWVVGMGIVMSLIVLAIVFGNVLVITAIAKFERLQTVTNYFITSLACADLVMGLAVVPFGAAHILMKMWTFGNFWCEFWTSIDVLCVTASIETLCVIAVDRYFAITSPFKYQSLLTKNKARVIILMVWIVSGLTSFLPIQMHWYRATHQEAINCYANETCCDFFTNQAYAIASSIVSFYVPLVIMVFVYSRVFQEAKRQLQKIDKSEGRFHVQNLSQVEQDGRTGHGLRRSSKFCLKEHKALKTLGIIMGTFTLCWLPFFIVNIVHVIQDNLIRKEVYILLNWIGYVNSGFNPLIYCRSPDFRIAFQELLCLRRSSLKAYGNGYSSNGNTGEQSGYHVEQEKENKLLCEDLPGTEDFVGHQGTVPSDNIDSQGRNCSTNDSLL

Compound	IC50 [1]	IC50 [2]	IC50 ([3]; cho-k1)	IC50 ([4]; hek293)	IC50 ([5]; cho-k1)	IC50 ([5]; read-out: IC50)	Ki [5]	IC50 ([3]; read-out: IC50)	Ki ([3]; read-out: Ki)	IC50 ([4]; read-out: IC50)	Ki ([4]; read-out: Ki)
CO[C@@]12[C@H](COC(N)=O)C3=C(C(=O)C(C)=C(N)C3=O)N1C[C@@H]1N[C@@H]12 [MITOMYCIN]	Not Active	Not Active	Not Active	Not Active	Not Active						
CC(Cl)(Cl)Cl [TRICHLOROETHANE]	Not Active	Not Active	Not Active	Not Active	Not Active						
O=[As][O-].[Na+] [SODIUM ARSENITE]	Not Active	Not Active	Not Active	Not Active	Not Active						
Cc1ccc(Cl)c(Nc2ccccc2C(=O)O)c1Cl [MECLOFENAMIC ACID]	Not Active	Not Active	Not Active	Not Active	Not Active						
Cc1ccc(S(=O)(=O)NC(=O)NN2CCCCCC2)cc1 [TOLAZAMIDE]	Not Active	Not Active	Not Active	Not Active	Not Active						
O=C(O)c1cc(/N=N/c2ccc(S(=O)(=O)Nc3ccccn3)cc2)ccc1O [SULFASALAZINE]	Not Active	Not Active	Not Active	Not Active	Not Active						
CC(=O)O[C@]1(C(C)=O)CC[C@H]2[C@@H]3C[C@H](C)C4=CC(=O)CC[C@]4(C)[C@H]3CC[C@@]21C [MEDROXYPROGESTERONE ACETATE]	Not Active	Not Active	Not Active	Not Active		27900 nM	27500 nM				
CC[C@H](C)C(=O)O[C@H]1CCC=C2C=C[C@H](C)[C@H](CC[C@@H]3C[C@@H](O)CC(=O)O3)[C@H]21 [MEVASTATIN]	Not Active	Not Active	Not Active	Not Active	Not Active						
CCN(CC)CCNC(=O)c1cc(Cl)c(N)cc1OC [METOCLOPRAMIDE]	Not Active	Not Active	Not Active	Not Active	Not Active						
Cc1nnc(NS(=O)(=O)c2ccc(N)cc2)s1 [SULFAMETHIZOLE]	Not Active	Not Active	Not Active	Not Active	Not Active						
CCC(C)(C)C(=O)O[C@H]1C[C@@H](C)C=C2C=C[C@H](C)[C@H](CC[C@@H]3C[C@@H](O)CC(=O)O3)[C@H]21 [SIMVASTATIN]	Not Active	Not Active	Not Active	Not Active	Not Active						
CN1C(=O)OC(C)(C)C1=O [TRIMETHADIONE]	Not Active	Not Active	Not Active	Not Active	Not Active						
CC[C@H](C)[C@@H](CO[C@@H](Cc1ccccc1)C(=O)N[C@@H](CCS(C)(=O)=O)C(=O)OC(C)C)NC[C@@H](N)CS	Not Active	Not Active	Not Active	Not Active	Not Active						
OC[C@@H](O)[C@@H](O)[C@H](O)[C@H](O)CO [MANNITOL]	Not Active	Not Active	Not Active	Not Active	Not Active						
Cc1cn([C@H]2C=C[C@@H](CO)O2)c(=O)[nH]c1=O [STAVUDINE]	Not Active	Not Active	Not Active	Not Active	Not Active						
CNCCCC12CCC(c3ccccc31)c1ccccc12 [MAPROTILINE]	Not Active	Not Active				400 nM	393 nM	160 nM	115 nM	397 nM	195 nM
CC1=C(/C=C/C(C)=C/C=C/C(C)=C/C(=O)O)C(C)(C)CCC1 [TRETINOIN]	Not Active	Not Active	Not Active	Not Active	Not Active						
